Experimental data taken from patent publication US20090088473A1, “METHOD FOR SCREENING OF PROSTAGLANDIN COMPOUNDS COMPRISING AN OPTIMAL FORMULATION FOR THE ENHANCEMENT OF HAIR GROWTH AND THE STIMULATION OF FOLLICULAR ANAGEN AND FORMULATIONS RESULTING THEREFROM” (CAYMAN CHEMICAL COMPANY, priority 2007, published 2009).

Target: T1, human FP receptor (Homo sapiens, UniProt P43088)
T1 construct: expressed in transfected cells; host or cells: HEK 293 (stably transfected)
Experiment: Total intracellular inositol phosphate (InsP) accumulation in HEK 293 cells stably transfected with the human FP receptor
Format: cell-based
Settings: FIG. 2; HEK 293 cells stably transfected with human FP receptor; free acid forms; rank among the prostaglandin analogs tested
Source text: An exemplary assay method may be described that correlates the ability of test compounds (FP receptor agonists) to induce hair growth with the ability of an established FP receptor agonist, in this case Bimatoprost free acid, to activate the FP receptor. The dose-dependent release of Inositol triphosphate by test compounds compared to the dose-dependent response of Bimatoprost free acid, an established eye lash-enhancing compound, may provide a structure activity relationship that may be used to predict the degree to which a given compound will promote eye lash growth.

T1 sequence (P43088 whole entry): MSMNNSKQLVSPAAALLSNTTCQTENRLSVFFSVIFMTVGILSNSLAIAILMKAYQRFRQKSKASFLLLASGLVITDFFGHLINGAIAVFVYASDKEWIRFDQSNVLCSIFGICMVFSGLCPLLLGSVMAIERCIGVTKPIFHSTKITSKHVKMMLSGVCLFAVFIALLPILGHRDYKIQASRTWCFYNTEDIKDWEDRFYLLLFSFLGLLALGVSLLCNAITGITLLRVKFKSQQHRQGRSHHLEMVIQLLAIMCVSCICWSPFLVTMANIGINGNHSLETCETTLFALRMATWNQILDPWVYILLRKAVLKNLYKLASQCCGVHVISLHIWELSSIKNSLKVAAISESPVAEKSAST

Row | SMILES | dose-dependent release of inositol triphosphate
1 | O=C(O)CCCC=CCC1C(O)CC(O)C1C=CC(O)COc1ccccc1 (stereo not drawn) [16-phenoxy tetranor PGF2α analog, 16-phenoxy tetranor PGF2α] | highest
2 | O=C(O)CCC/C=C\C[C@@H]1[C@@H](/C=C/[C@@H](O)COc2cccc(C(F)(F)F)c2)[C@H](O)C[C@@H]1O [(+) fluprestonol] | lowest
